Here are results for 25 compounds from PubChem BioAssay AID330 (DTP/NCI, 2004).

Each structure is given as a SMILES string. Several values for one entry are separate records, joined by “and”; a condition that tells them apart may be missing. Equal values may be shown once. Inconclusive results and toxic doses are left out. Peptide text beside a SMILES is read from it. * marks the point of attachment. Cbz = O=C(OCc1ccccc1)*

The subject of this test is P388 leukemia ip, CD2F1 mice, survival T/C. In words: NCI In Vivo Anticancer Drug Screen. Data for tumor model P388 Leukemia (intraperitoneal) in CD2F1 (CDF1) mice. The settings on record: endpoint: median survival time, higher = longer survival. A digest of the protocol:
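Mice carrying the transplanted tumor received test compound or vehicle. Survival was recorded in each group, and the value is the treated-group measurement divided by that of the vehicle-treated control group.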

Where [1] appears, read: dose: 100.0 mg/kg/injection, schedule: Q04DX003 (ip), vehicle: saline with Tween-80.
[2] abbreviates: dose: 60.0 mg/kg/injection, schedule: Q01DX005 (ip), vehicle: saline with Tween-80.
Where [3] appears, read: dose: 120.0 mg/kg/injection, schedule: Q01DX005 (ip), vehicle: saline with Tween-80.
Where [4] appears, read: dose: 240.0 mg/kg/injection, schedule: Q01DX005 (ip), vehicle: saline with Tween-80.
[5] abbreviates: dose: 75.0 mg/kg/injection, schedule: Q01DX009 (ip), vehicle: saline with Tween-80.
Setting [6] is: dose: 150.0 mg/kg/injection, schedule: Q01DX009 (ip), vehicle: saline with Tween-80.
[7] abbreviates: dose: 50.0 mg/kg/injection, schedule: Q01DX005 (ip), vehicle: Klucel (hydroxypropylcellulose) (HPC).
Where [8] appears, read: dose: 100.0 mg/kg/injection, schedule: Q01DX005 (ip), vehicle: Klucel (hydroxypropylcellulose) (HPC).
Where [9] appears, read: dose: 200.0 mg/kg/injection, schedule: Q01DX005 (ip), vehicle: Klucel (hydroxypropylcellulose) (HPC).
Setting [10] is: dose: 12.5 mg/kg/injection, schedule: Q01DX005 (ip), vehicle: saline with Tween-80.
[11] abbreviates: dose: 50.0 mg/kg/injection, schedule: Q01DX005 (ip), vehicle: saline with Tween-80.
The mark [12] stands for this setting: dose: 50.0 mg/kg/injection, schedule: Q01DX009 (ip), vehicle: saline with Tween-80.
Setting [13] is: dose: 100.0 mg/kg/injection, schedule: Q01DX009 (ip), vehicle: saline with Tween-80.
The mark [14] stands for this setting: dose: 200.0 mg/kg/injection, schedule: Q01DX009 (ip), vehicle: saline with Tween-80.

Take `CCCCCC/C=C/C1CC(=O)OC1=O` (configuration not stated): the T/C under setting [1] is 95 % of control.

`CN1CC(=O)NC2C(=CN(Cc3ccccc3)c3ccccc32)C1=O` (configuration not stated): the T/C by setting is: under setting [2], 100 % of control; under setting [3], 90 % of control; under setting [4], 90 % of control.

Turning to `CCOC(=O)C(C#N)c1cc(O)c(O)c2ccc(O)cc12` (configuration not stated), the T/C runs as follows: (dose: 100.0 mg/kg/injection, schedule: Q01DX001 (ip), vehicle: saline with Tween-80) 97 % of control; (dose: 200.0 mg/kg/injection, schedule: Q01DX001 (ip), vehicle: saline with Tween-80) 107 % of control; (dose: 400.0 mg/kg/injection, schedule: Q01DX001 (ip), vehicle: saline with Tween-80) 106 % of control.

Take `C=CCC(CC)C(=O)Cl` (configuration not stated): the T/C is 93 % of control under setting [5]; 92 % of control under setting [6]; 111 % of control (dose: 300.0 mg/kg/injection, schedule: Q01DX009 (ip), vehicle: saline with Tween-80).

As for `CCCCCCC(=O)/C=C/c1cccc(OCc2cccc(Cl)c2)c1`, the T/C is, setting by setting: (dose: 50.0 mg/kg/injection, schedule: Q01DX005 (ip), vehicle: saline + Tween-80 + alcohol) 96 % of control; (dose: 100.0 mg/kg/injection, schedule: Q01DX005 (ip), vehicle: saline + Tween-80 + alcohol) 91 % of control; (dose: 200.0 mg/kg/injection, schedule: Q01DX005 (ip), vehicle: saline + Tween-80 + alcohol) 96 % of control.

On to `CC(C)C(NC(=O)C(Cc1ccc(O)cc1)NC(=O)OCc1ccccc1)C(=O)O` (stereo not drawn) (Cbz-Tyr-Val-OH; configuration not given here), for which the T/C under setting [7] is 103 % of control, the T/C under setting [8] was 100 % of control and the T/C under setting [9] is 100 % of control.

As to `CCOC(=O)c1cnc(N)nc1CCC(=O)O`, the T/C is 107 % of control (dose: 37.5 mg/kg/injection, schedule: Q01DX009 (ip), vehicle: saline with Tween-80); 102 % of control under setting [5]; 107 % of control under setting [6].

For `O=C1C2CC(Cl)C(SSC3CC4C(=O)N(SC(Cl)(Cl)C(Cl)Cl)C(=O)C4CC3Cl)CC2C(=O)N1SC(Cl)(Cl)C(Cl)Cl` (configuration not stated), the T/C is 108 % of control and 110 % of control (dose: 6.25 mg/kg/injection, schedule: Q01DX005 (ip), vehicle: saline with Tween-80); 101 % of control and 107 % of control under setting [10]; 115 % of control under setting [11].

For the compound `N#C/C(=C\c1cccs1)C(N)=S`, the T/C is, setting by setting: (dose: 50.0 mg/kg/injection, schedule: Q01DX009 (ip), vehicle: saline) 100 % of control; (dose: 100.0 mg/kg/injection, schedule: Q01DX009 (ip), vehicle: saline) 102 % of control; (dose: 200.0 mg/kg/injection, schedule: Q01DX009 (ip), vehicle: saline) 100 % of control.

Consider `CCOC(=O)C(OCC)C1=Cc2ccccc2CC1` (configuration not stated), for which the T/C (dose: 25.0 mg/kg/injection, schedule: Q01DX001 (ip), vehicle: Klucel (hydroxypropylcellulose) (HPC)) was 93 % of control; the T/C (dose: 50.0 mg/kg/injection, schedule: Q01DX001 (ip), vehicle: Klucel (hydroxypropylcellulose) (HPC)) is 100 % of control; the T/C (dose: 100.0 mg/kg/injection, schedule: Q01DX001 (ip), vehicle: Klucel (hydroxypropylcellulose) (HPC)) is 93 % of control; the T/C (dose: 200.0 mg/kg/injection, schedule: Q01DX001 (ip), vehicle: Klucel (hydroxypropylcellulose) (HPC)) is 102 % of control; the T/C (dose: 400.0 mg/kg/injection, schedule: Q01DX001 (ip), vehicle: Klucel (hydroxypropylcellulose) (HPC)) is 107 % of control.

As to `Cc1ccc(NC(O)(C(F)(F)F)C(F)(F)F)cc1`, the T/C runs as follows: (dose: 100.0 mg/kg/injection, schedule: Q04DX002 (ip), vehicle: Klucel (hydroxypropylcellulose) (HPC)) 100 % of control; (dose: 200.0 mg/kg/injection, schedule: Q04DX002 (ip), vehicle: Klucel (hydroxypropylcellulose) (HPC)) 97 % of control; (dose: 400.0 mg/kg/injection, schedule: Q04DX002 (ip), vehicle: Klucel (hydroxypropylcellulose) (HPC)) 96 % of control.

Consider `O=C(NO)/C(CC(=O)c1ccc(O)cc1)=N\O`, for which the T/C is 104 % of control under setting [2], 101 % of control under setting [3] and 105 % of control under setting [4].

Regarding `Nc1ccc2ncccc2c1[N+](=O)[O-]`, the T/C was 95 % of control under setting [1] and 94 % of control (dose: 200.0 mg/kg/injection, schedule: Q04DX003 (ip), vehicle: saline with Tween-80).

Regarding `CCOC(=O)c1cnc2c(C(F)(F)F)cccc2c1N=[N+]=[N-]`, the T/C runs as follows: under setting [2], 99 % of control; under setting [3], 96 % of control; under setting [4], 95 % of control.

On to `CC(=O)C(Cc1ccccc1)NC(=O)C(F)(F)F` (configuration not stated), for which the T/C is 93 % of control under setting [12], 90 % of control under setting [13] and 98 % of control under setting [14].

As to `CCOC(=O)c1ccc(=O)n2c1[nH]c1ccccc12`, the T/C was 105 % of control under setting [10]; 108 % of control (dose: 25.0 mg/kg/injection, schedule: Q01DX005 (ip), vehicle: saline with Tween-80); 100 % of control and 108 % of control under setting [11].

Consider `CS(=O)(=O)OCCN(CCOS(C)(=O)=O)c1ccc(C(=O)O)cc1`, for which the T/C reads like this: (dose: 25.0 mg/kg/injection, schedule: Q01DX009 (ip), vehicle: saline with Tween-80) 159 % of control; under setting [12], 168 % of control and 190 % of control; under setting [13], 175 % of control; (dose: 132.0 mg/kg/injection, schedule: Q04DX003 (ip), vehicle: saline with Tween-80) 159 % of control.

For `[Co+2].[O-]c1ccccc1/C=N/Nc1ccccn1.[O-]c1ccccc1/C=N/Nc1ccccn1`, the T/C by setting is: (dose: 100.0 mg/kg/injection, schedule: Q04DX002 (ip), vehicle: saline with Tween-80) 91 % of control; (dose: 200.0 mg/kg/injection, schedule: Q04DX002 (ip), vehicle: saline with Tween-80) 90 % of control; (dose: 400.0 mg/kg/injection, schedule: Q04DX002 (ip), vehicle: saline with Tween-80) 95 % of control.

As to `Oc1ccccc1C=Nc1ccc2c(ccc3c4ccccc4ccc23)c1`, the T/C by setting is: under setting [7], 111 % of control; under setting [8], 102 % of control; under setting [9], 116 % of control.

Consider `O=C(NC(CCS(=O)(=O)NCCCl)C(=O)OCc1ccccc1)OCc1ccccc1` (configuration not stated), for which the T/C reads like this: (dose: 12.5 mg/kg/injection, schedule: Q01DX009 (ip), vehicle: other) 104 % of control; (dose: 25.0 mg/kg/injection, schedule: Q01DX009 (ip), vehicle: other) 90 % of control; (dose: 50.0 mg/kg/injection, schedule: Q01DX009 (ip), vehicle: other) 105 % of control; (dose: 100.0 mg/kg/injection, schedule: Q01DX009 (ip), vehicle: other) 103 % of control; (dose: 200.0 mg/kg/injection, schedule: Q01DX009 (ip), vehicle: other) 91 % of control.

In the case of `CS(C)(NC(N)=O)OS(=O)(=O)O`, the T/C runs as follows: (dose: 60.0 mg/kg/injection, schedule: Q01DX005 (ip), vehicle: saline) 98 % of control; (dose: 120.0 mg/kg/injection, schedule: Q01DX005 (ip), vehicle: saline) 98 % of control; (dose: 240.0 mg/kg/injection, schedule: Q01DX005 (ip), vehicle: saline) 101 % of control.

Consider `CCCCOC(=O)C1CSSCC(NC(C)=O)C(=O)N1` (configuration not stated), for which the T/C (dose: 17.5 mg/kg/injection, schedule: Q01DX005 (ip), vehicle: Klucel (hydroxypropylcellulose) (HPC)) was 101 % of control; the T/C (dose: 35.0 mg/kg/injection, schedule: Q01DX005 (ip), vehicle: Klucel (hydroxypropylcellulose) (HPC)) was 102 % of control; the T/C (dose: 70.0 mg/kg/injection, schedule: Q01DX005 (ip), vehicle: Klucel (hydroxypropylcellulose) (HPC)) was 108 % of control.

`C1CCc2c(-c3n[nH]c4c3CCCC4)n[nH]c2C1`: the T/C reads like this: under setting [2], 103 % of control; under setting [3], 101 % of control; under setting [4], 100 % of control.

`COc1cccc(OC)c1[N+](=O)[O-]`: the T/C reads like this: under setting [12], 87 % of control; under setting [13], 97 % of control; under setting [14], 106 % of control.

`COc1ccc(S(=O)(=O)N/N=C/c2cccc([N+](=O)[O-])c2O)cc1`: the T/C is 100 % of control under setting [11]; 100 % of control (dose: 100.0 mg/kg/injection, schedule: Q01DX005 (ip), vehicle: saline with Tween-80); 95 % of control (dose: 200.0 mg/kg/injection, schedule: Q01DX005 (ip), vehicle: saline with Tween-80).
